Reference: patent publication US20150044296A1, “COMBINATION THERAPY TO IMPROVE JOINT, TENDON, AND LIGAMENT HEALING” (priority 2012, published 2015)

System: trephine defect (bony healing)
Assay: Bony healing of trephine defect after systemic treatment
Assay type: in vivo, mice
Conditions: systemic administration

| SMILES | bony ingrowth / bony regeneration |
| --- | --- |
| c1cc(CN2CCCNCCNCCCNCC2)ccc1CN1CCCNCCNCCCNCC1 [AMD3100] | 59.7% |
| CC[C@H](C)[C@H](NC(=O)[C@H](CCC(=O)O)NC(=O)[C@H](CO)NC(=O)[C@@H](NC(=O)[C@@H](N)CO)C(C)C)C(=O)N[C@@H](CCC(N)=O)C(=O)N[C@@H](CC(C)C)C(=O)N[C@@H](CCSC)C(=O)N[C@@H](Cc1cnc[nH]1)C(=O)N[C@@H](CC(N)=O)C(=O)N[C@@H](CC(C)C)C(=O)NCC(=O)N[C@@H](CCCCN)C(=O)N[C@@H](Cc1cnc[nH]1)C(=O)N[C@@H](CC(C)C)C(=O)N[C@@H](CC(N)=O)C(=O)N[C@@H](CO)C(=O)N[C@@H](CCSC)C(=O)N[C@@H](CCC(=O)O)C(=O)N[C@@H](CCCN=C(N)N)C(=O)N[C@H](C(=O)N[C@@H](CCC(=O)O)C(=O)N[C@@H](Cc1c[nH]c2ccccc12)C(=O)N[C@@H](CC(C)C)C(=O)N[C@@H](CCCN=C(N)N)C(=O)N[C@@H](CCCCN)C(=O)N[C@@H](CCCCN)C(=O)N[C@@H](CC(C)C)C(=O)N[C@@H](CCC(N)=O)C(=O)N[C@@H](CC(=O)O)C(=O)N[C@H](C(=O)N[C@@H](Cc1cnc[nH]1)C(=O)N[C@@H](CC(N)=O)C(=O)N[C@@H](Cc1ccccc1)C(=O)O)C(C)C)C(C)C [PTH] | 56% |
